Literature values in patent publication US6689384B2, “Stable pergolide mesylate and process for making same” (Teva Pharmaceuticals Industries Ltd., priority 2000, dated 2004).
Counter-ions that a name gives are not always drawn.

Legend:
[1] = test system: serum concentrations of luteinizing hormone; conditions: in humans
[2] = test system: serum concentrations of growth hormone; conditions: in humans
secretion of prolactin = conditions: in humans
[3] = oral administration, 14C radio-labeled

SMILES	serum concentrations of luteinizing hormone [1]	serum concentrations of growth hormone [2]	secretion of prolactin (secretion of prolactin)	administered radioactivity recovered from expired CO2 [3]	administered radioactivity recovered from the urine [3]	bound to plasma proteins (plasma proteins)
CCCN1CC(CSC)CC2c3cccc4[nH]cc(c34)CC21 (stereo not drawn) [Pergolide mesylate, 8(beta)-[(Methylthio)methyl]-6-propylergoline monomethanesulfonate]	decrease	transient rise	inhibits	~5%	approximately 55%	
CCCN1C[C@H](CSC)C[C@@H]2c3cccc4[nH]cc(c34)C[C@H]21 [Pergolide]						approximately 90%
